We go through 13 molecules from the Kinase Knowledgebase extract (Sharma et al. 2016).

The target of the assay is MAPK14 (human) (UniProt Q16539). Briefly: Inhibition of MAPK14 Kinase Activity.
Chain of MAPK14 (human) (Q16539 whole entry, looked up): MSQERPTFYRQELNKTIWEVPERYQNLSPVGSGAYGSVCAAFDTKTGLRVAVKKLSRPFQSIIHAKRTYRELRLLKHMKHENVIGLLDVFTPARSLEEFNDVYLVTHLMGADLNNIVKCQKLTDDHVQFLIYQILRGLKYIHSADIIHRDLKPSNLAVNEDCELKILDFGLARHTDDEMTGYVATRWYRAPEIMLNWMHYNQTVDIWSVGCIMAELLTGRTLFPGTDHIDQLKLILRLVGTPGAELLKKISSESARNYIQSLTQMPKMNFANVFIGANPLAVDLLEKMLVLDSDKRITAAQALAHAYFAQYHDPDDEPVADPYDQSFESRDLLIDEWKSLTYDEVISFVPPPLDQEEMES
In turn, `CS(=O)(=O)Nc1ccc(-c2cnc3cccc(-c4ccncc4)c3c2)cc1` displayed an IC50 above 20 µM. Next, `c1ccc(-c2cnc3ccc4ccncc4c3c2)cc1`: above 20 µM. Next, `CS(=O)(=O)Nc1ccc(-c2cnc3cccc(Nc4ncccn4)c3c2)cc1`: above 20 µM; `CS(=O)(=O)N(c1ccc(-c2cnc3ccc4ccncc4c3c2)cc1)S(C)(=O)=O`: above 20 µM; `Oc1ccc(-c2cnc3ccc4ccncc4c3c2)cc1`: above 20 µM. Next, `CC(=O)Nc1ccc(-c2cnc3ccc4ccncc4c3c2)cc1`: above 20 µM; `CS(=O)(=O)Nc1ccc(-c2cnc3cccc(-c4cccnc4)c3c2)cc1`: above 20 µM; `CS(=O)(=O)Nc1ccc(-c2cnc3cccc(Nc4ccccn4)c3c2)cc1`: above 20 µM. Consider `CC(C)(C)NS(=O)(=O)c1ccc(-c2cnc3cccc(Nc4ccccn4)c3c2)cc1`, for which the IC50 is above 20 µM.

As to `CC(C)(C)NS(=O)(=O)c1ccc(-c2cnc3cccc(Nc4ccc(Cl)cn4)c3c2)cc1`, the IC50 was above 20 µM.

`Nc1ccc(-c2cnc3ccc4ccncc4c3c2)cc1` showed an IC50 above 20 µM.

`CS(=O)(=O)Nc1ccc(-c2cnc3cccc(Nc4ccc(Cl)cn4)c3c2)cc1` displayed an IC50 above 20 µM. Molecule `CS(=O)(=O)Nc1ccc(-c2cnc3ccc4ccncc4c3c2)cc1` came in with an IC50 above 20 µM.
